Values joined by “and” are separate entries in the source; they are usually repeats but may differ in a detail not shown here. Equal values may be shown once. “Also recorded” adds a separate entry of the source. Read-outs that look alike come from different tables or passages of the source.
Experiments:
human FAAH (hFAAH) = molecular target: T1, human FAAH (hFAAH) (Homo sapiens, UniProt O00519); assay: FAAH enzyme inhibition assay (Cayman inhibitor screening kit, AMC-arachidonoyl amide, fluorescence); assay type: biochemical; conditions: for FAAH inhibitory activity (in words): in vitro, up to 100 μM
T1 construct: purchased Cayman Item # 10005196
T1 sequence (O00519 1-579): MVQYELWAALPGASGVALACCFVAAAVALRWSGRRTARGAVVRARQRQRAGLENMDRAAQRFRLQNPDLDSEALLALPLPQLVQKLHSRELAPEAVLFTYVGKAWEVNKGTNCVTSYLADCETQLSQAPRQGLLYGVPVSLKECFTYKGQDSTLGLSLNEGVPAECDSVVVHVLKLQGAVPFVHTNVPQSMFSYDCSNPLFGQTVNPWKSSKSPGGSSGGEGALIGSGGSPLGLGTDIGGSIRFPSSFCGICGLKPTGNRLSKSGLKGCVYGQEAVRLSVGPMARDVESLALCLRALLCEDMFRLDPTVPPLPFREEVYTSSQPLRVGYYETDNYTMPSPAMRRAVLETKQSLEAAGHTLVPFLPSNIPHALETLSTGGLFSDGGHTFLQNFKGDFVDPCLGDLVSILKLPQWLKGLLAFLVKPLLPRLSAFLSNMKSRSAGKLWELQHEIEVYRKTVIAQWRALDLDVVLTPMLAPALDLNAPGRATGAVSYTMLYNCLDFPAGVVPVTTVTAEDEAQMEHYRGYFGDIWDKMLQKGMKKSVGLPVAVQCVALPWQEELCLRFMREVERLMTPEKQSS
Experimental: The manufacturer’s protocol was followed to perform the assay. […] AMC-Arachidonoyl amide, at a concentration of 400 μM, was then used as the FAAH substrate. The samples were mixed for 30 s and incubated at 37 °C for 30 min.

human MAGL (hMAGL) = molecular target: T2, human MAGL (hMAGL) (Homo sapiens, UniProt Q99685); assay: MAGL enzyme inhibition assay (4-nitrophenylacetate hydrolysis, absorbance 405 nm); assay type: biochemical; conditions: for MAGL inhibitory activity (in words): in vitro; for decrease of MAGL inhibitory activity: relative to the parent compound as worded in the text (disulfiram for 2c, 2d; para substitution of 2h for 2k); as to IC50 (µM) ± SE (hMAGL): 250 µM 4-nitrophenylacetate
T2 construct: purchased Reaction Biology Corp
T2 sequence (Q99685 1-303): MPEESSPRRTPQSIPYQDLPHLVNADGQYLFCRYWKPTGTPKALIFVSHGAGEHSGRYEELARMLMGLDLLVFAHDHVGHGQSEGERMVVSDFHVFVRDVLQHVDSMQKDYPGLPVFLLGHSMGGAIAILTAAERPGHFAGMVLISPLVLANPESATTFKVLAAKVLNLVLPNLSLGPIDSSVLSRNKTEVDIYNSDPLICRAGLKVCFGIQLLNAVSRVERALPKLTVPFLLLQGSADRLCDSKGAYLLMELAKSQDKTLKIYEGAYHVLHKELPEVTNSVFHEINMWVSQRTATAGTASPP
Experimental: All of the tested compounds were prepared as 10 mM stock solutions in DMSO. […] The plate was mixed for 30 s and incubated at room temperature for 30 min.

[1] = 10-dose IC50 mode, 3-fold serial dilution, top 100 μM (JZL195 5 μM), 400 μM AMC-arachidonoyl amide, 37 °C 30 min, average of at least two experiments ± SE
[2] = read-out: IC50 (µM) ± SE (hMAGL)
[3] = read-out: IC50 (µM) ± SE (hFAAH)

Row | SMILES | IC50 (human FAAH (hFAAH); [1]) [µM] | FAAH inhibitory activity (in words) (human FAAH (hFAAH)) | IC50 (human MAGL (hMAGL); [2]) [µM] | IC50 (human FAAH (hFAAH); [3]) | also measured
1 | S=C(SSC(=S)N(Cc1ccccc1)Cc1ccccc1)N(Cc1ccccc1)Cc1ccccc1 [2m] | > 100 | complete loss of FAAH inhibitory activity | – | – | IC50 (human MAGL (hMAGL)): 3.58 ± 0.95 µM
2 | CCN(Cc1ccc(F)cc1)C(=S)SSC(=S)N(CC)Cc1ccc(F)cc1 [2i] | > 100 | devoid of anti-FAAH activity; also recorded: did not show any inhibitory activity | 3.58 ± 1.54 | – | MAGL inhibitory activity (in words) (human MAGL (hMAGL)): low micromolar range
3 | CC(C)CN(CC(C)C)C(=S)SSC(=S)N(CC(C)C)CC(C)C [2d] | > 100 | no inhibition | 13.4 ± 4.79 | – | hydrolytic activity of MAGL inhibited by the compound upon addition of dithiothreitol (reversibility of inhibition) (human MAGL (hMAGL); absence vs presence of dithiothreitol 10 mM): restored; decrease of MAGL inhibitory activity (human MAGL (hMAGL)): up to 15 fold
4 | CCCCN(CCCC)C(=S)SSC(=S)N(CCCC)CCCC [2c] | > 100 | no inhibition | 7.14 ± 0.21 | – | decrease of MAGL inhibitory activity (human MAGL (hMAGL)): up to 15 fold
5 | O=C(Oc1ccc([N+](=O)[O-])cc1)N1CCN(Cc2cccc(Oc3ccccc3)c2)CC1 [JZL-195, reference compound] | 0.04 ± 0.02 | – | – | – | –
6 | CCN(CCC(=O)O)C(=S)SSC(=S)N(CC)CCC(=O)O [2f] | – | – | 0.87 ± 0.21 | 12.8 ± 1.57 µM | –
7 | CCN(CCO)C(=S)SSC(=S)N(CC)CCO [2e] | – | – | 0.72 ± 0.2 | 25.4 ± 3.26 µM | –
8 | CC(C)N(C(=S)SSC(=S)N(C(C)C)C(C)C)C(C)C [2b] | > 100 | – | 1.89 ± 0.37 | – | –
9 | CCOC(=O)CCN(CC)C(=S)SSC(=S)N(CC)CCC(=O)OCC [2g, Bis(N-ethoxycarbonylethylethylthiocarbamoyl)disulphide] | – | – | 3.53 ± 1.32 | 10 ± 0.68 µM | MAGL inhibitory activity (in words) (human MAGL (hMAGL)): low micromolar range
10 | CCN(CC)C(=S)SSC(=S)N(CC)CC [2a, Disulfiram, reference compound] | – | – | 0.95 ± 0.26 | 36 µM and 36.2 µM | –

Now from value to compound, other results behind:

Row | IC50 (human FAAH (hFAAH); [1]) [µM] | FAAH inhibitory activity (in words) (human FAAH (hFAAH)) | IC50 (human MAGL (hMAGL); [2]) [µM] | IC50 (human FAAH (hFAAH); [3]) | SMILES | also measured
11 | > 100 | devoid of anti-FAAH activity | 5.03 ± 2.35 | – | CCOC(=O)c1ccc(CN(CC)C(=S)SSC(=S)N(CC)Cc2ccc(C(=O)OCC)cc2)cc1 [2l, Bis(N-4-ethoxycarbonylbenzylethylthiocarbamoyl)disulphide] | –
12 | – | – | 3.71 ± 1.28 | 38.3 ± 7.96 µM | CCN(Cc1ccc(O)cc1)C(=S)SSC(=S)N(CC)Cc1ccc(O)cc1 [2j] | –
13 | > 100 | devoid of anti-FAAH activity | 22.6 ± 16.8 | – | CCN(Cc1ccc(C(=O)O)cc1)C(=S)SSC(=S)N(CC)Cc1ccc(C(=O)O)cc1 [2k] | –
14 | > 100 | devoid of anti-FAAH activity | 5.53 ± 2.62 | – | CCN(Cc1ccccc1)C(=S)SSC(=S)N(CC)Cc1ccccc1 [2h] | –
